Results as given in patent US9051306B2, “Indirubin derivative having highly selective cytotoxicity for malignant tumors” (NIHON UNIVERSITY, priority 2011, dated 2015).
Entries after “also recorded” stand apart in the source; their conditions may differ. Like-named read-outs stand apart in the source and are kept apart here. Values belong to the molecule of their own block, whether it stands above or below them.

Tests used:
[1] = test system: human neuroblastoma cells IMR-32; test: Antitumor activity, MTT method, IMR-32; type: cell-based
Description: (§1) Antitumor activity was determined by the MTT (3-(4,5-dimethylthiazol-2-yl)-2,5-diphenyltetrazolium bromide) method.
(§2) One hundred μL of a suspension of tumor cells in an RPMI 1640 medium was seeded into a 96-well plate (1×10^4 cells/well) and cultured for 24 hours (5% CO2, 37° C., saturated humidity conditions). Subsequently, the test compound (final concentration of from 1×10^−5 to 1×10^−8 M) and DMSO as a control were each added in an amount of 0.2 μL and allowed to act on the tumor cells for 48 hours. Subsequently, 10 μL of a 0.5% MTT solution was added. After 3 hours, 100 μL of a reaction terminating solution (0.04 N HCl/isopropanol) was added to terminate the reaction. After thorough pipetting, the absorbance was measured at 570 nm (top) and 655 nm (bottom) using a microplate reader. The cell survival rate for each sample at each concentration was calculated as a percentage to the control group, and IC50 values were determined from the data. The tumor cells used were human neuroblastoma cells IMR-32, SK-N-SH, LA-N-1, and NB-39 and human liver cancer cells HepG-2. Non-tumor cells: normal human dermal fibroblasts (NHDF) and human umbilical vein endothelial cells (HUVEC) were also used.

[2] = test system: human neuroblastoma cells SK-N-SH; test: Antitumor activity, MTT method, SK-N-SH; type: cell-based
Description: as §1, §2

[3] = test system: human neuroblastoma cells NB-39; test: Antitumor activity, MTT method, NB-39; type: cell-based
Description: as §1, §2

[4] = test system: human neuroblastoma cells LA-N-1; test: Antitumor activity, MTT method, LA-N-1; type: cell-based
Description: as §1, §2

[5] = test system: human liver cancer cells HepG-2; test: Antitumor activity, MTT method, HepG-2; type: cell-based
Description: as §1, §2

[6] = test system: normal human dermal fibroblasts (NHDF); test: Cytotoxicity, MTT method, NHDF non-tumor cells; type: cell-based
Description: as §1, §2

[7] = test system: human umbilical vein endothelial cells (HUVEC); test: Cytotoxicity, MTT method, HUVEC non-tumor cells; type: cell-based
Description: as §1, §2

[8] = test system: human liver cancer cell line HepG2; test: Antitumor activity (2), Alamar Blue cell survival; type: cell-based; conditions: 24 hours, read-out: cytotoxic activity (IC50: 50% inhibitory concentration)
Description: Fetal bovine serum (FBS) was added at a final concentration of 10% to dulbecco's modified eagle's medium (DMEM, Sigma-Aldrich), and a penicillin-streptomycin solution (GIBCO) was further added at a concentration of 0.1 mg/mL.
An Alamar Blue solution manufactured by Wako Pure Chemical Industries, Ltd. was used.
One hundred μL aliquot of a suspension of human liver cancer cell line HepG2 cells in DMEM medium (1.0×10^5 cells/mL) was dispensed into a 96-well culture plate. The cells were allowed to adhere to the plate by being cultured at 37° C. in 5% CO2 under saturated humidity conditions. After culture for 24 hours, the medium was removed by suction, and 100 μL of a test compound-containing medium (containing 1% DMSO) was added. The cells were cultured at 37° C. in 5% CO2 under saturated humidity conditions. After culture for 24 hours, the medium was removed by suction, and the cells were washed with phosphate buffered saline (PBS). The Alamar Blue reagent solution (100 μL) diluted 10 times with the medium was added to each well, and the cells were cultured under the same conditions. After 1 hour, the fluorescence intensity was measured at an excitation wavelength of 577 nm and a detection wavelength of 612 nm. When the cell survival rate was calculated, the value for the well added with the vehicle (containing 1% DMSO) was normalized as 100%.

IMR-32 cells = test: Ability to induce apoptosis, Hoechst 33342 staining method; type: cell-based, human
Description: The ability to induce apoptosis was examined using nuclear staining by the Hoechst 33342 staining method.
Two mL of a suspension of cells (IMR-32) in an RPMI 1640 medium was seeded into a 6-well plate (1×10^5 cells/well) and cultured for 24 hours (under 5% CO2, 37° C., and saturated humidity conditions). Subsequently, the test compound (final concentration of from 1×10^−5 M to 1×10^−7 M) and DMSO as a control were each added in an amount of 4 μL and allowed to act on the cells for 24 hours. Subsequently, 100 μL of a 0.02% Hoechst 33342 solution was added. After 15 minutes, phase-contrast images and fluorescence images of the cells were taken with a fluorescence microscope to observe changes in cell morphology.

[9] = test system: human neuroblastoma IMR-32 cells; test: Ability to induce apoptosis, flow cytometry (Annexin V-FITC/PI); type: cell-based; conditions: 24 hours
Description: Flow cytometry was used to detect whether the compound (HS-2) of the present invention had the ability to induce apoptosis of human neuroblastoma IMR-32 cells. Specifically, 2 mL of a suspension of cells (IMR-32) in an RPMI 1640 medium was seeded into a 6-well plate (1×10^6 cells/well) and cultured for 24 hours (under 5% CO2, 37° C., and saturated humidity conditions). Subsequently, the compound (HS-2) was added at a final concentration of from 1×10^−5 M to 1×10^−7 M and incubated under 37° C. and 5% CO2 conditions for 24 hours. The cells were detached with trypsin and washed with PBS. Annexin V-FITC and propidium iodide (PI) were then added to the cells to carry out flow cytometry. In this technique, only Annexin V-FITC fluorescence is observed from cells in the early apoptosis phase, and both Annexin V fluorescence and PI fluorescence are observed from cells in the late apoptosis phase.

tumor cells = test: Antitumor activity, MTT method, overall statement on tumor cells; type: cell-based, human; conditions: from FIG. 1 and Table 1
Description: as §1, §2

SMILES: O=C1Nc2ccccc2/C1=C1/Nc2ccccc2/C1=N\OCC1CO1 (stereo not drawn) [HS-2, indirubin-3′-(O-oxiran-2-ylmethyl)oxime]
IC50 ([1]; Homo sapiens, IMR-32, 48 h): 329 nM
IC50 ([2]; Homo sapiens, 48 h): 325 nM
IC50 ([3]; Homo sapiens, NB39, 48 h): 550 nM
IC50 ([4]; Homo sapiens, LAN1, 48 h): 139 nM
IC50 ([5]; Homo sapiens, HepG2): 1000 nM
IC50 ([6]; Homo sapiens, NHDF, 48 h): 61400 nM
IC50 ([7]; Homo sapiens, HUVEC, 48 h): 1750 nM
IC50 ([8]; Homo sapiens): 1000 nM
apoptosis of IMR-32 neuroblastoma cells (IMR-32 cells; FIG. 2 legend): induced apoptosis
nuclear morphology (Hoechst 33342 staining) (IMR-32 cells; IMR-32, 0.1 μM, 24 hours, FIG. 2): induced nuclear aggregation and fragmentation
apoptosis-inducing effect ([9]; IMR-32, 10 μM): significant apoptosis-inducing effect
ability to induce apoptosis ([9]; IMR-32, 1×10^−5 M to 1×10^−7 M, FIG. 3): induced apoptosis; also recorded: concentration-dependent ability to induce apoptosis
antitumor activity relative to cisplatin (CDDP) (tumor cells): 50 to 100 times

IC50 ([1]; IMR-32, MTT, 48 hours, read-out: IC50): 28200 nM
IC50 ([2]; MTT, 48 hours, read-out: IC50): 12100 nM
IC50 ([3]; NB-39, MTT, 48 hours, read-out: IC50): 2040 nM
IC50 ([4]; LA-N-1, MTT, 48 hours, read-out: IC50): 1630 nM
IC50 ([5]; HepG-2, Table 1, read-out: IC50): 10000 nM
SMILES: [NH2][Pt]([NH2])([Cl])[Cl] [CDDP, cisplatin, reference compound]
IC50 ([6]; NHDF normal cells, MTT, 48 hours, read-out: IC50): > 100000 nM
IC50 ([7]; HUVEC normal cells, MTT, 48 hours, read-out: IC50): 69800 nM
IC50 [8]: 10000 nM
